{"source": "patent US20150045387A1", "about": "“Bi-Aromatic And Tri-Aromatic Compounds As NADPH Oxidase 2 (Nox2) Inhibitors” (The University of Surrey, priority 2011, published 2015)", "key": {"[1]": {"tested_on": "human liver hepatocyte cells (HepG2)", "assay": "cell viability by trypan blue exclusion and viable cell number counting, HepG2", "format": "cell-based", "settings": "HepG2, LMH001 5 and 10 μM, 24 h, trypan blue exclusion", "protocol": "FIG. 7 is a graph showing no cytotoxicity of LMH001 on living mouse microvascular endothelial cells (SVEC4-10) and human liver hepatocyte cells (HepG2), assessed by trypan blue exclusion and viable cell number counting. Cells were cultured with LMH001 (5 and 10 μM) for 24 h. Cell viabilities of SVEC4-10 cells and HepG2 cells in the presence of LMH001 (5 and 10 μM) were expressed as % of alive cells compared to cells in the absence of LMH001 (control, 100%). Results are presented as mean±SD (n=3).\nHepG2 is a human hepatocytic cell line (ATCC No. HB-8065) that was originally derived from liver tissue with a well differentiated hepatocellular carcinoma. HepG2 cells have been proven to be a suitable in vitro model system for the study of human hepatocytes, and the study of liver metabolism and toxicity. […]\nCell viability and membrane integrity in the presence and absence of LMH001 were assessed using the trypan blue exclusion assay as described previously (15). […] At the time of experiment, cells were harvested by 0.25% Trypsin/EDTA, pelleted, resuspended in serum free medium and counted using a haemocytometer in the presence of trypan blue (0.4%) solution. The number of viable cells was calculated as a percentage of total cells."}, "[2]": {"tested_on": "mouse microvascular endothelial cells (SVEC4-10 cells)", "assay": "MTT assay for cytotoxicity, SVEC4-10", "format": "cell-based", "settings": "SVEC4-10, LMH001 5 and 10 μM, 24 h", "protocol": "FIG. 8 is a graph showing no cytotoxicity of LMH001 on living mouse microvascular endothelial cells (SVEC4-10 cells) and human liver hepatocyte cells (HepG2 cells), assessed by means of an MTT assay. Cells were cultured with LMH001 (5 and 10 μM) for 24 h. MTT is a yellow tetrazolium reagent which can be converted by living cells to insoluble blue formazan crystal in the medium. The insoluble blue formazan crystals were then dissolved in DMSO and measured for absorbance at 570 nm by a plate reader. Higher absorbance corresponds to more living cells. Results are presented as mean±SD (n=3).\nThe mouse lymph node microvascular endothelial cell line (SVEC4-10) was from the American Type Culture Collection (CRL-2167) and grown in DMEM, containing 10% (v/v) heat inactivated foetal calf serum, 100 U/mL penicillin and […] streptomycin, in a humidified atmosphere at 37° C. with 5% CO2.\nThe potential cytotoxicity of LMH001 on cultured endothelial cells (SVEC4-10) and liver cells (HepG2) was assessed using the MIT assay as described previously (16). […] Absorbance was measured at 570 nm in an ELISA plate reader and the mean of 3 blank readings was subtracted from each corrected value."}, "[3]": {"tested_on": "microvascular endothelial cells (SVEC4-10)", "assay": "basal and angiotensin II induced O2.- production, lucigenin-chemiluminescence", "format": "cell-based, mouse", "settings": "LMH001 5 μM, 24 h in culture, cell homogenates, NADPH-dependent", "protocol": "FIG. 10 is a graph showing the effects of LMH001 in culture on basal and angiotensin II induced O2.^− production by microvascular endothelial cells (SVEC4-10). SVEC4-10 cells were cultured in medium alone (Basal) or in the presence of Angiotensin II (AngII, 200 nM) with or without LMH001 (5 μM) for 24 h. Cells were then harvested and cell homogenates were used for the measurement of NADPH-dependent O2.^− production by lucigenin-chemiluminescence. *P<0.05 (n=3 experiments). […]\nO2^− production by different cell types was measured using lucigenin (5 μM)-chemiluminescence. A microplate luminometer (LumiStar, BMG) was used, which allows the examination of 96 samples at the same time with kinetic reading facilities. […] Dark-adapted lucigenin (5 μM) was added into the well through an auto-dispenser located in the dark chamber just before reading. The light emission was recorded over a 60 minute period and expressed as arbitrary MLU measured by the illuminometer. Each experiment was performed in triplicate and the mean of 3 blank readings was subtracted from each corrected value for each reading. […]\nO2^− production was also studied using total cell homogenate (for the endothelial cells and the fibroblasts). […] Soluble protein concentration was determined using a kit from Bio-Rad Laboratories Ltd. (Hertfordshire, U.K.). […]"}}}
{"compound": "O=C(OCc1cccc(O)c1O)c1ccc(O)c(CO)c1", "note": "[LMH001, (2,3,-dihydroxyphenyl)methyl 4-hydroxy-3-(hydroxymethyl)benzoate]", "values": [{"measurement": "cell viability (% of alive cells vs control)", "setting": "[1]", "value": "no significant difference"}, {"measurement": "cytotoxicity, MTT absorbance at 570 nm", "setting": "[2]", "value": "no significant difference"}, {"measurement": "AngII-induced endothelial O2.- production", "setting": "[3]; Angiotensin II 200 nM", "value": "completely inhibited"}, {"measurement": "basal cell O2.- production", "setting": "[3]; medium alone", "value": "no effect"}]}
